Source: ChEMBL document CHEMBL5365420, “Kinetics, Thermodynamics, and Structural Effects of Quinoline-2-Carboxylates, Zinc-Binding Inhibitors of New Delhi Metallo-β-lactamase-1 Re-sensitizing Multidrug-Resistant Bacteria for Carbapenems” (J Med Chem, 2023)

How the values were obtained:
Format in all cases: functional
Escherichia coli [1] = test: Antibacterial activity against clinical isolate Escherichia coli K12 J53-ST10 684/18 expressing blaNDM-1 co-expressing blaCMY-2 and blaOXA-10 assessed as meropenem MIC at 23.5 uM measured after 20 hrs by broth microdilution assay (reference value: 5.03 mg/L)
Escherichia coli [2] = test: Antibacterial activity against clinical isolate Escherichia coli K12 J53-ST10 684/18 expressing blaNDM-1 co-expressing blaCMY-2 and blaOXA-10 assessed as meropenem MIC at 47 uM measured after 20 hrs by broth microdilution assay (reference value: 10.06 mg/L)
Escherichia coli [3] = test: Antibacterial activity against clinical isolate Escherichia coli K12 J53-ST10 696/17 expressing blaNDM-1 co-expressing blaCMY-4 assessed as meropenem MIC at 23.5 uM measured after 20 hrs by broth microdilution assay (reference value: 5.03 mg/L)
Escherichia coli [4] = test: Antibacterial activity against clinical isolate Escherichia coli K12 J53-ST10 696/17 expressing blaNDM-1 co-expressing blaCMY-4 assessed as meropenem MIC at 47 uM measured after 20 hrs by broth microdilution assay (reference value: 10.06 mg/L)
Escherichia coli [5] = test: Antibacterial activity against clinical isolate Escherichia coli K12 J53-ST10 618/15 expressing blaNDM-1 assessed as meropenem MIC at 23.5 uM measured after 20 hrs by broth microdilution assay (reference value: 5.03 mg/L)
Escherichia coli [6] = test: Antibacterial activity against clinical isolate Escherichia coli K12 J53-ST10 618/15 expressing blaNDM-1 assessed as meropenem MIC at 47 uM measured after 20 hrs by broth microdilution assay (reference value: 10.06 mg/L)
Escherichia coli [7] = test: Antibacterial activity against clinical isolate Escherichia coli K12 J53-ST10 699/15 expressing blaNDM-1 assessed as meropenem MIC at 23.5 uM measured after 20 hrs by broth microdilution assay (reference value: 5.03 mg/L)
Escherichia coli [8] = test: Antibacterial activity against clinical isolate Escherichia coli K12 J53-ST10 699/15 expressing blaNDM-1 assessed as meropenem MIC at 47 uM measured after 20 hrs by broth microdilution assay (reference value: 10.06 mg/L)
Acinetobacter baumannii [9] = test: Antibacterial activity against clinical isolate Acinetobacter baumannii IC 19/09 expressing blaNDM-1 co-expressing blaOXA-64 assessed as meropenem MIC at 23.5 uM measured after 20 hrs by broth microdilution assay (reference value: 5.03 mg/L)
Acinetobacter baumannii [10] = test: Antibacterial activity against clinical isolate Acinetobacter baumannii IC 19/09 expressing blaNDM-1 co-expressing blaOXA-64 assessed as meropenem MIC at 47 uM measured after 20 hrs by broth microdilution assay (reference value: 10.06 mg/L)
Escherichia coli [11] = test: Antibacterial activity against clinical isolate Escherichia coli ST1012/10 expressing blaNDM-1 co-expressing blaTEM-1/blaCTX-M-15/blaOXA-1 and blaOXA-2 assessed as meropenem MIC at 23.5 uM measured after 20 hrs by broth microdilution assay (reference value: 5.03 mg/L)
Escherichia coli [12] = test: Antibacterial activity against clinical isolate Escherichia coli ST1012/10 expressing blaNDM-1 co-expressing blaTEM-1/blaCTX-M-15/blaOXA-1 and blaOXA-2 assessed as meropenem MIC at 47 uM measured after 20 hrs by broth microdilution assay (reference value: 10.06 mg/L)
Klebsiella pneumoniae [13] = test: Antibacterial activity against clinical isolate Klebsiella pneumoniae ST1493/10 expressing blaNDM-1 co-expressing blaCMY-2like/blaTEM-1/blaCTX-M-15/blaSHV-28/blaOXA-1 and blaOXA-9 assessed as meropenem MIC at 23.5 uM measured after 20 hrs by broth microdilution assay (reference value: 5.03 mg/L)
Klebsiella pneumoniae [14] = test: Antibacterial activity against clinical isolate Klebsiella pneumoniae ST1493/10 expressing blaNDM-1 co-expressing blaCMY-2like/blaTEM-1/blaCTX-M-15/blaSHV-28/blaOXA-1 and blaOXA-9 assessed as meropenem MIC at 47 uM measured after 20 hrs by broth microdilution assay (reference value: 10.06 mg/L)
Klebsiella pneumoniae [15] = test: Antibacterial activity against clinical isolate Klebsiella pneumoniae 50/11 expressing blaNDM-1 co-expressing blaTEM-1/blaSHV-28/blaTEM-1/blaCTX-M-15 and blaOXA-1 assessed as meropenem MIC at 23.5 uM measured after 20 hrs by broth microdilution assay (reference value: 5.03 mg/L)
Klebsiella pneumoniae [16] = test: Antibacterial activity against clinical isolate Klebsiella pneumoniae 50/11 expressing blaNDM-1 co-expressing blaTEM-1/blaSHV-28/blaTEM-1/blaCTX-M-15 and blaOXA-1 assessed as meropenem MIC at 47 uM measured after 20 hrs by broth microdilution assay (reference value: 10.06 mg/L)
Klebsiella pneumoniae [17] = test: Antibacterial activity against clinical isolate Klebsiella pneumoniae 50/20 expressing blaNDM-5 co-expressing blaTEM-1 and blaSHV-1 assessed as meropenem MIC at 23.5 uM measured after 20 hrs by broth microdilution assay (reference value: 5.03 mg/L)
Klebsiella pneumoniae [18] = test: Antibacterial activity against clinical isolate Klebsiella pneumoniae 50/20 expressing blaNDM-5 co-expressing blaTEM-1 and blaSHV-1 assessed as meropenem MIC at 47 uM measured after 20 hrs by broth microdilution assay (reference value: 10.06 mg/L)
Escherichia coli [19] = test: Antibacterial activity against clinical isolate Escherichia coli 371/12 expressing blaNDM-7 co-expressing blaCTX-M-15 and blaOXA-1 assessed as meropenem MIC at 23.5 uM measured after 20 hrs by broth microdilution assay (reference value: 5.03 mg/L)
Escherichia coli [20] = test: Antibacterial activity against clinical isolate Escherichia coli 371/12 expressing blaNDM-7 co-expressing blaCTX-M-15 and blaOXA-1 assessed as meropenem MIC at 47 uM measured after 20 hrs by broth microdilution assay (reference value: 10.06 mg/L)
Klebsiella pneumoniae [21] = test: Antibacterial activity against clinical isolate Klebsiella pneumoniae ST23213/19 expressing blaNDM-1 co-expressing blaOXA-48/blaSHV-11/blaCTX-M-15 and blaOXA-1 assessed as meropenem MIC at 23.5 uM measured after 20 hrs by broth microdilution assay (reference value: 5.03 mg/L)
Klebsiella pneumoniae [22] = test: Antibacterial activity against clinical isolate Klebsiella pneumoniae ST23213/19 expressing blaNDM-1 co-expressing blaOXA-48/blaSHV-11/blaCTX-M-15 and blaOXA-1 assessed as meropenem MIC at 47 uM measured after 20 hrs by broth microdilution assay (reference value: 10.06 mg/L)
Klebsiella pneumoniae [23] = test: Antibacterial activity against clinical isolate Klebsiella pneumoniae 62/07 expressing blaVIM-19 co-expressing blaSHV-1/blaCTX-M-14 and blaCMY-4 assessed as meropenem MIC at 23.5 uM measured after 20 hrs by broth microdilution assay (reference value: 5.03 mg/L)
Klebsiella pneumoniae [24] = test: Antibacterial activity against clinical isolate Klebsiella pneumoniae 62/07 expressing blaVIM-19 co-expressing blaSHV-1/blaCTX-M-14 and blaCMY-4 assessed as meropenem MIC at 47 uM measured after 20 hrs by broth microdilution assay (reference value: 10.06 mg/L)

MIC (Escherichia coli [1]): ≤ 0.125 µg/mL | MIC (Escherichia coli [2]): ≤ 0.125 µg/mL | MIC (Escherichia coli [3]): ≤ 0.125 µg/mL | MIC (Escherichia coli [4]): ≤ 0.125 µg/mL | MIC (Escherichia coli [5]): ≤ 0.125 µg/mL | MIC (Escherichia coli [6]): ≤ 0.125 µg/mL | MIC (Escherichia coli [7]): ≤ 0.125 µg/mL | MIC (Escherichia coli [8]): ≤ 0.125 µg/mL | MIC (Acinetobacter baumannii [9]): ≤ 0.125 µg/mL | MIC (Acinetobacter baumannii [10]): ≤ 0.125 µg/mL | MIC (Escherichia coli [11]): ≤ 0.125 µg/mL | MIC (Escherichia coli [12]): ≤ 0.125 µg/mL | MIC (Klebsiella pneumoniae [13]): 128 µg/mL | MIC (Klebsiella pneumoniae [14]): 16 µg/mL | MIC (Klebsiella pneumoniae [15]): 4 µg/mL | MIC (Klebsiella pneumoniae [16]): ≤ 0.125 µg/mL | MIC (Klebsiella pneumoniae [17]): 4 µg/mL | MIC (Klebsiella pneumoniae [18]): ≤ 0.125 µg/mL | MIC (Escherichia coli [19]): ≤ 0.125 µg/mL | MIC (Escherichia coli [20]): ≤ 0.125 µg/mL | MIC (Klebsiella pneumoniae [21]): 128 µg/mL | MIC (Klebsiella pneumoniae [22]): 16 µg/mL | MIC (Klebsiella pneumoniae [23]): 8 µg/mL | MIC (Klebsiella pneumoniae [24]): ≤ 0.125 µg/mL
Compound: Oc1c(Cl)cc(Cl)c2cccnc12 [CHLOROXINE]
